# According to article PMC4767605 (Cancer chemotherapy and pharmacology, 2016):
# Test: Phase I study: plasma pharmacokinetics of ASP9853 and docetaxel
# Assay type: in vivo, human
# Details: compared with reported docetaxel alone [29]
smiles,measurement,value
"CC(=O)O[C@@]12CO[C@@H]1C[C@H](O)[C@@]1(C)C(=O)[C@H](O)C3=C(C)[C@@H](OC(=O)[C@H](O)[C@@H](NC(=O)OC(C)(C)C)c4ccccc4)C[C@@](O)([C@@H](OC(=O)c4ccccc4)[C@H]21)C3(C)C [docetaxel, reference compound]",Docetaxel PK in combination with ASP9853,appeared similar to that reported for docetaxel alone
